Assay [1] deals with RSV A2 VR-1540. Kind of assay: RSV plaque reduction assay, typical conditions (HEp-2 cells). The class given is cell-based. The settings on record: human respiratory syncytial virus; for IC90: typical protocol, read-out: RSV Plaque Reduction Assay Strain A2 IC90; for IC50: †: typical protocol, n = 1, read-out: RSV Plaque Reduction Assay Strain A2 IC50. The procedure:
The plaque reduction assay was typically performed as follows. HEp-2 cells (ATCC, CCL23) were passaged in flasks and seeded in 96-well plates in DMEM containing antibiotics and supplemented with 10% FBS. During inoculation and subsequent incubation, cells were cultured in DMEM containing 3% FBS. 100 plaque forming unit (PFU)/well of RSV (RSV A2 VR-1540) was mixed with ten serial dilutions of compound. Subsequently, 100 μL of the virus/compound mixtures was added to confluent HEp-2 cell monolayers. The cells and virus/compound mixtures were incubated at 35° C. in a humidified 5% CO2 incubator for 1 day.
Cells were washed twice with PBS before adding 50% v % v EtOH/MeOH, and then stored at −20° C. On the day of the staining, fixative was first removed from the plates. Plates were washed 3× with PBS. A pre-titrated amount of the primary antibody was added in 60 μL PBS/2% milk powder, and plates incubated for 1 h at rt. The plates were washed 3× with PBS/0.05% Tween20 before addition of goat anti-mouse horse radish peroxidase in 60 μL PBS/2% milk powder, and incubated for 1 h at rt. Following three wash steps with PBS/0.05% Tween20, 60 μL ready-to-use TrueBlue was added and plates were incubated at it for 10-15 min before adding MilliQ water. Plates were washed once with water, incubated for 30-60 min and after removal of water, air-dried in the dark.
(§1) Plates were scanned and analyzed using the Immunospot S6 UV analyzer, which is equipped with BioSpot analysis software for counting immunostained plaques (virospots). Plaque counts were used to calculate % infection relative to the mean of the spot count (SC) in the virus control wells for RSV. IC50/IC90 values were calculated as 50% or 90% reduction in signal, respectively, by interpolation of inhibition curves fitted with a 4-parameter nonlinear regression with a variable slope in GraphPad 5.0 (Prism). Alternatively, where noted the plaque reduction assay was performed as follows. Hep G2 cells (ECACC, 85011430) were passaged in flasks and seeded in 12-well plates in DMEM containing antibiotics and supplemented with 10% FBS, 24 h prior to inoculation. During inoculation and subsequent incubation, cells were cultured in DMEM containing 2% FBS. 75 plaque forming unit (PFU)/well of RSV (RSV A2, 0709161v) was mixed with 8 serial dilutions of compound. Subsequently, 200 μL of the virus/compound mixtures was added to confluent Hep G2 cell monolayers, for a 2 h infection, with manual shaking every 15 min. Infectious supernatant was then removed and replaced with 2 mL of overlay, comprising 4 parts of DMEM+2% FBS and 1 part 4% CMC, with 0.25% DMSO. The cells were incubated at 37° C. in a humidified 5% CO2 incubator for 5 days.
A general note: In a plaque reduction assay, fewer plaques than in the control indicate reduced infectivity or spread.

The test system of assay [2] is RSV A2, 0709161v. Put plainly: RSV plaque reduction assay, alternative conditions (Hep G2 cells). The class given is cell-based. To be noted: human respiratory syncytial virus, HepG2, mean of at least 2 independent experiments, read-out: RSV Plaque Reduction Assay Strain A2 IC50. Here is the method: as §1
Overlay was removed, and cells were washed with PBS before fixing with a mixture of 75% acetone 25% methanol for 3 minutes and replacing with fresh PBS. […] Staining was carried out whilst shaking at 37° C. First the plates were blocked with 500 uL PBS-T/2% milk powder per well, for 1 hr. This was then replaced with 250 uL PBS-T/2% milk powder containing a pre-titrated amount of the primary antibody (ab1128), for 90 min. The plates were washed 3×5 min with PBS-T, before addition of rabbit anti-goat horse radish peroxidase (AP106P) in 250 μL PBS-T/2% milk powder, and incubated for 1 hr. […]
Plates were scanned and analysed using the Immunospot S6 Macro analyzer, which is equipped with BioSpot analysis software for counting immunostained plaques. […]

As a reminder, the IC90 is the concentration at which the effect reaches the 90% level. In general, IC50 refers to the concentration at which inhibition is half-maximal. On to `CS(=O)(=O)CCCn1c(CN2C(=O)C(F)(F)c3ccccc32)nc2cc(Cl)ccc21` [Compound 5, 1-{[5-Chloro-1-(3-methanesulfonylpropyl)-1H-1,3-benzodiazol-2-yl]methyl}-3,3-difluoro-2,3-dihydro-1H-indol-2-one], for which, in assay [1], the concentration for an effect of 90% (IC90) stood at 4.4 nM and the IC50 was determined as 1.4 nM.

For the compound `CCS(=O)(=O)N1CCC(n2c(CN3C(=O)C(F)(F)c4ccccc43)nc3cc(Cl)ccc32)CC1` [Compound 9, 1-({5-Chloro-1-[1-(ethanesulfonyl)piperidin-4-yl]-1H-1,3-benzodiazol-2-yl}methyl)-3,3-difluoro-2,3-dihydro-1H-indol-2-one], in assay [2], the 50% inhibitory concentration (IC50) was determined as 12.6 nM.

Consider `O=C1N(Cc2nc3cc(Cl)ccc3n2C2CCOCC2)c2ccccc2C1(F)F` [Compound 10, 1-{[5-Chloro-1-(oxan-4-yl)-1H-1,3-benzodiazol-2-yl]methyl}-3,3-difluoro-2,3-dihydro-1H-indol-2-one], for which, in assay [1], the IC90 is 53 nM and the IC50 worked out at 6.4 nM.

Turning to `CC(C)CCn1c(CN2C(=O)C(F)(F)c3ccccc32)nc2cc(CN)ccc21` [Compound 13, 1-{[5-(Aminomethyl)-1-(3-methylbutyl)-1H-1,3-benzodiazol-2-yl]methyl}-3,3-difluoro-2,3-dihydro-1H-indol-2-one], in assay [2], the IC50 was 4.1 nM.

The record behind these values is US11141406B2, “Pharmaceutical compounds” (REVIRAL LIMITED, priority 2017, dated 2021).
